Each structure is given as a SMILES string. Converted amounts (≈) assume the structure as drawn. Where two headings read alike, the source gives them in different places.

Type in all cases: cell-based
The test system of assay [1] is Enterobacter aerogeneus No. 75. Description: Minimum Inhibitory Concentration, Enterobacter aerogeneus No. 75. The following applies: Enterobacter aerogeneus No. 75; for MIC: read-out: Minimum Inhibitory Concentration. As to the method: (§1) anti-microbial activity tests were carried out on the compounds obtained in the Examples.
The subject of assay [2] is Staphylococcus aureus 209 P. The experiment in a line: Minimum Inhibitory Concentration, Staphylococcus aureus 209 P. The conditions noted are these: Staphylococcus aureus 209 P; for MIC: read-out: Minimum Inhibitory Concentration. As to the method:
as §1

A further assay deals with Proteus vulgaris HX 19. The experiment in a line: Minimum Inhibitory Concentration, Proteus vulgaris HX 19. The conditions noted are these: Proteus vulgaris HX 19; for MIC: HX19, read-out: Minimum Inhibitory Concentration. The protocol:
as §1

Another assay deals with Escherichia coli NIHJ. The experiment in a line: Minimum Inhibitory Concentration, Escherichia coli NIHJ. The following applies: Escherichia coli NIHJ; for MIC: read-out: Minimum Inhibitory Concentration. As to the method: as §1
In assay [3] the test system is Staphylococcus aureus FS 289. Description: Minimum Inhibitory Concentration, Staphylococcus aureus FS 289. As to the method:
as §1
*Staphylococcus aureus FS 289: strain resistant to penicillin

Assay [4] relates to Pseudomonas aeruginosa 104. The experiment in a line: Minimum Inhibitory Concentration, Pseudomonas aeruginosa 104. The following applies: Pseudomonas aeruginosa 104; for MIC: read-out: Minimum Inhibitory Concentration. The protocol:
as §1

Assay [5] relates to Klebsiella pneumoniae 602. Description: Minimum Inhibitory Concentration, Klebsiella pneumoniae 602. The following applies: for MIC: Klebsiella pneumoniae, 602, Klebsiella pneumoniae 602, read-out: Minimum Inhibitory Concentration. As to the method:
as §1

In the next assay the test system is Serratia No. 72. Description: Minimum Inhibitory Concentration, Serratia No. 72. As to the method: as §1
Setting [6] is: FS289, Staphylococcus aureus FS 289, strain resistant to penicillin, read-out: Minimum Inhibitory Concentration.

With `NC(=O)Nc1ccc([C@@H](NC(=O)c2cnc3cccnc3c2O)C(=O)N[C@@H]2C(=O)N3C(C(=O)O)=C(CSc4cnn[nH]4)CS[C@H]23)cc1` [Example 23], the MIC in assay [1] is 3.13 µg/mL (≈ 4.63 µM); in assay [2], 1.56 µg/mL (≈ 2.31 µM); in the assay on Proteus vulgaris HX 19 it was 0.2 µg/mL (≈ 0.296 µM); in the assay on Escherichia coli NIHJ it was 3.13 µg/mL (≈ 4.63 µM); in assay [3] (setting [6]), 6.25 µg/mL (≈ 9.24 µM); in assay [4] it was 3.13 µg/mL (≈ 4.63 µM). The MIC in assay [5] is 1.56 µg/mL (≈ 2.31 µM); with Serratia No. 72 it was 12.5 µg/mL (≈ 18.5 µM).
On to `NC(=O)Nc1ccc([C@@H](NC(=O)c2cnc3cccnc3c2O)C(=O)N[C@@H]2C(=O)N3C(C(=O)O)=C(CSc4nnc(S)s4)CS[C@H]23)cc1` [Example 24], for which the MIC worked out at 3.13 µg/mL (≈ 4.31 µM) in assay [1]; 1.56 µg/mL (≈ 2.15 µM) in assay [2]; 0.39 µg/mL (≈ 0.537 µM) with Proteus vulgaris HX 19; 3.13 µg/mL (≈ 4.31 µM) in the assay on Escherichia coli NIHJ; 6.25 µg/mL (≈ 8.61 µM) in assay [3] (setting [6]); 3.13 µg/mL (≈ 4.31 µM) in assay [4]. In addition, the MIC in assay [5] was found to be 1.56 µg/mL (≈ 2.15 µM); in the assay with Serratia No. 72, 12.5 µg/mL (≈ 17.2 µM).
As to `Cc1ccc2c(O)c(C(=O)N[C@@H](C(=O)N[C@@H]3C(=O)N4C(C(=O)O)=C(CSc5nnc(C)s5)CS[C@H]34)c3ccc(NC(N)=O)cc3)cnc2n1` [Example 25], the MIC in assay [1] was found to be 6.25 µg/mL (≈ 8.66 µM); in assay [2] it was 1.56 µg/mL (≈ 2.16 µM); with Proteus vulgaris HX 19, 0.39 µg/mL (≈ 0.54 µM); in the assay on Escherichia coli NIHJ, 3.13 µg/mL (≈ 4.34 µM); in assay [3] (setting [6]), 6.25 µg/mL (≈ 8.66 µM); in assay [4], 3.13 µg/mL (≈ 4.34 µM). Besides, the figures for the MIC (in assay [5]; against Serratia No. 72) were 3.13 µg/mL (≈ 4.34 µM) and 12.5 µg/mL (≈ 17.3 µM), respectively.
In the case of `Cc1ccc2c(O)c(C(=O)N[C@@H](C(=O)N[C@@H]3C(=O)N4C(C(=O)O)=C(CSc5nnnn5C)CS[C@H]34)c3ccc(NC(N)=O)cc3)cnc2n1` [Example 26], the MIC in assay [1] was determined as 6.25 µg/mL (≈ 8.86 µM); in assay [2] it was 1.56 µg/mL (≈ 2.21 µM); in the assay on Proteus vulgaris HX 19 it was 0.2 µg/mL (≈ 0.283 µM); with Escherichia coli NIHJ it was 3.13 µg/mL (≈ 4.44 µM); in assay [3] (setting [6]) it was 6.25 µg/mL (≈ 8.86 µM); in assay [4], 3.13 µg/mL (≈ 4.44 µM). Also, the MIC in assay [5] amounted to 3.13 µg/mL (≈ 4.44 µM); in the assay with Serratia No. 72, 12.5 µg/mL (≈ 17.7 µM).
Consider `CN(C)c1ccc2ncc(C(=O)N[C@@H](C(=O)N[C@@H]3C(=O)N4C(C(=O)O)=C(CSc5cnn[nH]5)CS[C@H]34)c3ccc(NC(N)=O)cc3)c(O)c2n1` [Example 27], for which the MIC in assay [1] was determined as 3.13 µg/mL (≈ 4.35 µM); in assay [2], 1.56 µg/mL (≈ 2.17 µM); with Proteus vulgaris HX 19 it was 0.2 µg/mL (≈ 0.278 µM); with Escherichia coli NIHJ, 3.13 µg/mL (≈ 4.35 µM); in assay [3] (Staphylococcus aureus, FS289, read-out: Minimum Inhibitory Concentration) it was 6.25 µg/mL (≈ 8.68 µM); in assay [4], 3.13 µg/mL (≈ 4.35 µM). Moreover, the MIC was 1.56 µg/mL (≈ 2.17 µM) in assay [5] and 12.5 µg/mL (≈ 17.4 µM) against Serratia No. 72.
Regarding `Cc1nnc(SCC2=C(C(=O)O)N3C(=O)[C@@H](NC(=O)[C@H](NC(=O)c4cnc5ccc(N(C)C)nc5c4O)c4ccc(NC(N)=O)cc4)[C@H]3SC2)s1` [Example 28], the MIC came to 3.13 µg/mL (≈ 4.17 µM) in assay [1]; 1.56 µg/mL (≈ 2.08 µM) in assay [2]; 0.1 µg/mL (≈ 0.133 µM) in the assay on Proteus vulgaris HX 19; 1.56 µg/mL (≈ 2.08 µM) in the assay on Escherichia coli NIHJ; 6.25 µg/mL (≈ 8.32 µM) in assay [3] (setting [6]); 3.13 µg/mL (≈ 4.17 µM) in assay [4]. Moreover, the values for the MIC (in assay [5]; with Serratia No. 72) were 1.56 µg/mL (≈ 2.08 µM) and 12.5 µg/mL (≈ 16.6 µM), respectively.
For `CN(C)c1ccc2ncc(C(=O)NC(C(=O)NC3C(=O)N4C(C(=O)[O-])=C(CSc5nnnn5C)CSC34)c3ccc(NC(N)=O)cc3)c(O)c2n1.[Na+]` (centres unmarked) [Example 29], the “Minimum Inhibitory Concentration” value came to 3.13 µg/mL in assay [1]; 0.78 µg/mL in assay [2]; 0.2 µg/mL in the assay on Proteus vulgaris HX 19; 1.56 µg/mL in the assay on Escherichia coli NIHJ; 6.25 µg/mL in assay [3] (Staphylococcus aureus FS 289, strain resistant to penicillin); 3.13 µg/mL in assay [4]. Besides, the figures for the “Minimum Inhibitory Concentration” value (in assay [5] (Klebsiella pneumoniae 602); in the assay with Serratia No. 72) were 1.56 µg/mL and 12.5 µg/mL, respectively.
Regarding `COc1cnc2c(O)c(C(=O)N[C@@H](C(=O)N[C@@H]3C(=O)N4C(C(=O)O)=C(COC(C)=O)CS[C@H]34)c3cccc(NC(N)=O)c3)cnc2n1` [Example 31], the MIC worked out at 25 µg/mL (≈ 37.5 µM) in assay [1]; 0.78 µg/mL (≈ 1.17 µM) in assay [2]; 0.39 µg/mL (≈ 0.585 µM) with Proteus vulgaris HX 19; 3.13 µg/mL (≈ 4.7 µM) with Escherichia coli NIHJ; 6.25 µg/mL (≈ 9.38 µM) in assay [3] (setting [6]); 6.25 µg/mL (≈ 9.38 µM) in assay [4]. Further, the values for the MIC (in assay [5]; in the assay on Serratia No. 72) were 3.13 µg/mL (≈ 4.7 µM) and 50 µg/mL (≈ 75 µM), respectively.
`CC(=O)OCC1=C(C(=O)O)N2C(=O)[C@@H](NC(=O)[C@H](NC(=O)c3cnc4cncnc4c3O)c3cccc(NC(N)=O)c3)[C@H]2SC1` [Example 32]: the MIC came to 12.5 µg/mL (≈ 19.6 µM) in assay [1]; 0.78 µg/mL (≈ 1.23 µM) in assay [2]; 0.39 µg/mL (≈ 0.613 µM) with Proteus vulgaris HX 19; 3.13 µg/mL (≈ 4.92 µM) in the assay with Escherichia coli NIHJ; 6.25 µg/mL (≈ 9.82 µM) in assay [3] (setting [6]); 6.25 µg/mL (≈ 9.82 µM) in assay [4]. The results for the MIC (in assay [5]; in the assay with Serratia No. 72) were 3.13 µg/mL (≈ 4.92 µM) and 50 µg/mL (≈ 78.5 µM), respectively.
Take `COc1ccc2ncc(C(=O)N[C@@H](C(=O)N[C@@H]3C(=O)N4C(C(=O)O)=C(COC(C)=O)CS[C@H]34)c3cccc(NC(N)=O)c3)c(O)c2n1` [Example 33]: the MIC in assay [1] came to 12.5 µg/mL (≈ 18.8 µM); in assay [2] it was 0.78 µg/mL (≈ 1.17 µM); in the assay with Proteus vulgaris HX 19, 0.78 µg/mL (≈ 1.17 µM); in the assay on Escherichia coli NIHJ it was 3.13 µg/mL (≈ 4.7 µM); in assay [3] (setting [6]), 6.78 µg/mL (≈ 10.2 µM); in assay [4], 6.25 µg/mL (≈ 9.39 µM). Also, the MIC was found to be 3.13 µg/mL (≈ 4.7 µM) in assay [5] and 50 µg/mL (≈ 75.1 µM) in the assay on Serratia No. 72.

The record behind these values is US4156724A, “N-acylamino-alpha-arylacetamido cephalosporins and antibacterial compositions and methods containing them” (Sumitomo Chemical Company, Limited, priority 1974, dated 1979).
